Laboratory results: PubChem BioAssay AID1259407 (Chemical Carcinogenesis Research Information System (CCRIS), 2018)
Calls of active or inactive are those of the source. How the calls were made is not given here.

Test system: CCRIS mutagenicity, Ames/micronucleus/aberration tests
Assay: CCRIS mutagenicity studies

Oc1cccc2cccnc12 was tested, and the mutagenic call (End Point: IN VITRO CHROMOSOMAL ABERRATIONS, Test System: CHL CELLS, Metabolic Activation: RAT, LIVER, S-9, SODIUM PHENOBARBITAL AND 5,6-BENZOFLAVONE) was “active; positive (structural changes)”, the mutagenic call (End Point: IN VITRO CHROMOSOMAL ABERRATIONS, Test System: CHO-LB CELLS, Metabolic Activation: NONE) was “inactive; negative” and the mutagenic call (End Point: IN VITRO CHROMOSOMAL ABERRATIONS, Test System: CHO-LB CELLS, Metabolic Activation: RAT, LIVER, S-9, AROCLOR 1254) was “active; positive”. The mutagenic call (End Point: IN VITRO CHROMOSOMAL ABERRATIONS, Test System: CHO-WBL CELLS, Metabolic Activation: RAT, LIVER, S-9, PHENOBARBITAL AND BETA-NAPHTHOFLAVONE) was “active; positive”, the mutagenic call (Test System: AMES SALMONELLA TYPHIMURIUM, Strain/Indicator: TA97, Metabolic Activation: HAMSTER, LIVER, S-9, AROCLOR 1254 (10%), Method: PREINCUBATION) was “active; positive” and the mutagenic call (Test System: AMES SALMONELLA TYPHIMURIUM, Strain/Indicator: TA97, Metabolic Activation: NONE, Method: PREINCUBATION) was “inactive; negative”. For the same compound, the mutagenic call (Test System: AMES SALMONELLA TYPHIMURIUM, Strain/Indicator: TA97, Metabolic Activation: RAT, LIVER, S-9, AROCLOR 1254 (10%), Method: PREINCUBATION) was “active; positive”, the mutagenic call (Test System: AMES SALMONELLA TYPHIMURIUM, Strain/Indicator: TA98, Metabolic Activation: HAMSTER, LIVER, S-9, AROCLOR 1254 (10%), Method: PREINCUBATION) was “inactive; negative” and the mutagenic call (Test System: AMES SALMONELLA TYPHIMURIUM, Strain/Indicator: TA98, Metabolic Activation: HAMSTER, LIVER, S-9, AROCLOR 1254 (30%), Method: PREINCUBATION) was “inactive; negative”. For the same compound, the mutagenic call (Test System: AMES SALMONELLA TYPHIMURIUM, Strain/Indicator: TA98, Metabolic Activation: NONE, Method: FLUCTUATION (MICROTITER)) was “inactive; negative”, the mutagenic call (Test System: AMES SALMONELLA TYPHIMURIUM, Strain/Indicator: TA98, Metabolic Activation: NONE, Method: PREINCUBATION) was “inactive; negative” and the mutagenic call (Test System: AMES SALMONELLA TYPHIMURIUM, Strain/Indicator: TA98, Metabolic Activation: RAT LIVER S-9, AROCLOR 1254, Method: FLUCTUATION (MICROTITER)) was “active; positive”. For the same compound, the mutagenic call (Test System: AMES SALMONELLA TYPHIMURIUM, Strain/Indicator: TA98, Metabolic Activation: RAT, LIVER, S-9, AROCLOR 1254 (10%), Method: PREINCUBATION) was “inactive; negative”, the mutagenic call (Test System: AMES SALMONELLA TYPHIMURIUM, Strain/Indicator: TA98, Metabolic Activation: RAT, LIVER, S-9, AROCLOR 1254 (30%), Method: PREINCUBATION) was “active; positive” and the mutagenic call (Test System: AMES SALMONELLA TYPHIMURIUM, Strain/Indicator: TA98, Metabolic Activation: RAT, LIVER, S-9, AROCLOR 1254, Method: STANDARD PLATE) was “active; positive”. The mutagenic call (Test System: AMES SALMONELLA TYPHIMURIUM, Strain/Indicator: TA98, Metabolic Activation: RAT, LIVER, S-9, KC500 OR PHENOBARBITAL, Method: LIQUID SUSPENSION) was “active; positive”, the mutagenic call (Test System: AMES SALMONELLA TYPHIMURIUM, Strain/Indicator: TA98, Metabolic Activation: RAT, LIVER, S-9, Method: PREINCUBATION) was “active; positive” and the mutagenic call (Test System: AMES SALMONELLA TYPHIMURIUM, Strain/Indicator: TA100, Metabolic Activation: HAMSTER, LIVER, S-9, AROCLOR 1254 (10%), Method: PREINCUBATION) was “active; positive”. The mutagenic call (Test System: AMES SALMONELLA TYPHIMURIUM, Strain/Indicator: TA100, Metabolic Activation: HAMSTER, LIVER, S-9, AROCLOR 1254 (30%), Method: PREINCUBATION) was “inactive; negative”, the mutagenic call (Test System: AMES SALMONELLA TYPHIMURIUM, Strain/Indicator: TA100, Metabolic Activation: NONE, Method: PREINCUBATION) was “inactive; negative” and the mutagenic call (Test System: AMES SALMONELLA TYPHIMURIUM, Strain/Indicator: TA100, Metabolic Activation: NONE, Method: STANDARD PLATE) was “inactive; negative”. The mutagenic call (Test System: AMES SALMONELLA TYPHIMURIUM, Strain/Indicator: TA100, Metabolic Activation: RAT, LIVER, S-9, AROCLOR 1254 (5%, 10% OR 20%), Method: STANDARD PLATE) was “active; positive”, the mutagenic call (Test System: AMES SALMONELLA TYPHIMURIUM, Strain/Indicator: TA100, Metabolic Activation: RAT, LIVER, S-9, AROCLOR 1254 (10% OR 20%), Method: STANDARD PLATE) was “active; positive” and the mutagenic call (Test System: AMES SALMONELLA TYPHIMURIUM, Strain/Indicator: TA100, Metabolic Activation: RAT, LIVER, S-9, AROCLOR 1254 (10%), Method: PREINCUBATION) was “active; positive”. For the same compound, the mutagenic call (Test System: AMES SALMONELLA TYPHIMURIUM, Strain/Indicator: TA100, Metabolic Activation: RAT, LIVER, S-9, AROCLOR 1254 (30%), Method: PREINCUBATION) was “active; positive”, the mutagenic call (Test System: AMES SALMONELLA TYPHIMURIUM, Strain/Indicator: TA100, Metabolic Activation: RAT, LIVER, S-9, AROCLOR 1254, Method: STANDARD PLATE) was “active; positive” and the mutagenic call (Test System: AMES SALMONELLA TYPHIMURIUM, Strain/Indicator: TA100, Metabolic Activation: RAT, LIVER, S-9, KC500 OR PHENOBARBITAL, Method: LIQUID SUSPENSION) was “active; positive”. The mutagenic call (Test System: AMES SALMONELLA TYPHIMURIUM, Strain/Indicator: TA100, Metabolic Activation: RAT, LIVER, S-9, Method: PREINCUBATION) was “active; positive”, the mutagenic call (Test System: AMES SALMONELLA TYPHIMURIUM, Strain/Indicator: TA100, Metabolic Activation: S-9, Method: PREINCUBATION) was “active; positive” and the mutagenic call (Test System: AMES SALMONELLA TYPHIMURIUM, Strain/Indicator: TA1535, Metabolic Activation: HAMSTER, LIVER, S-9, AROCLOR 1254 (10%), Method: PREINCUBATION) was “inactive; negative”. For the same compound, the mutagenic call (Test System: AMES SALMONELLA TYPHIMURIUM, Strain/Indicator: TA1535, Metabolic Activation: NONE, Method: PREINCUBATION) was “inactive; negative”, the mutagenic call (Test System: AMES SALMONELLA TYPHIMURIUM, Strain/Indicator: TA1535, Metabolic Activation: RAT, LIVER, S-9, AROCLOR 1254 (10%), Method: PREINCUBATION) was “inactive; negative” and the mutagenic call (Test System: AMES SALMONELLA TYPHIMURIUM, Strain/Indicator: TA1535, Metabolic Activation: RAT, LIVER, S-9, AROCLOR 1254, Method: STANDARD PLATE) was “active; positive”. The mutagenic call (Test System: AMES SALMONELLA TYPHIMURIUM, Strain/Indicator: TA1537, Metabolic Activation: NONE, Method: FLUCTUATION (MICROTITER)) was “inactive; negative”, the mutagenic call (Test System: AMES SALMONELLA TYPHIMURIUM, Strain/Indicator: TA1537, Metabolic Activation: RAT LIVER S-9, AROCLOR 1254, Method: FLUCTUATION (MICROTITER)) was “active; positive” and the mutagenic call (Test System: AMES SALMONELLA TYPHIMURIUM, Strain/Indicator: TA1537, Metabolic Activation: RAT, LIVER, S-9, AROCLOR 1254, Method: STANDARD PLATE) was “active; positive”. The mutagenic call (Test System: AMES SALMONELLA TYPHIMURIUM, Strain/Indicator: TA7001, Metabolic Activation: NONE, Method: FLUCTUATION (MICROTITER)) was “inactive; negative”, the mutagenic call (Test System: AMES SALMONELLA TYPHIMURIUM, Strain/Indicator: TA7001, Metabolic Activation: RAT LIVER S-9, AROCLOR 1254, Method: FLUCTUATION (MICROTITER)) was “inactive; negative” and the mutagenic call (Test System: AMES SALMONELLA TYPHIMURIUM, Strain/Indicator: TA7002, Metabolic Activation: NONE, Method: FLUCTUATION (MICROTITER)) was “inactive; negative”. The mutagenic call (Test System: AMES SALMONELLA TYPHIMURIUM, Strain/Indicator: TA7002, Metabolic Activation: RAT LIVER S-9, AROCLOR 1254, Method: FLUCTUATION (MICROTITER)) was “active; positive”, the mutagenic call (Test System: AMES SALMONELLA TYPHIMURIUM, Strain/Indicator: TA7003, Metabolic Activation: NONE, Method: FLUCTUATION (MICROTITER)) was “inactive; negative” and the mutagenic call (Test System: AMES SALMONELLA TYPHIMURIUM, Strain/Indicator: TA7003, Metabolic Activation: RAT LIVER S-9, AROCLOR 1254, Method: FLUCTUATION (MICROTITER)) was “inactive; negative”. The mutagenic call (Test System: AMES SALMONELLA TYPHIMURIUM, Strain/Indicator: TA7004, Metabolic Activation: NONE, Method: FLUCTUATION (MICROTITER)) was “inactive; negative”, the mutagenic call (Test System: AMES SALMONELLA TYPHIMURIUM, Strain/Indicator: TA7004, Metabolic Activation: RAT LIVER S-9, AROCLOR 1254, Method: FLUCTUATION (MICROTITER)) was “inactive; negative” and the mutagenic call (Test System: AMES SALMONELLA TYPHIMURIUM, Strain/Indicator: TA7005, Metabolic Activation: NONE, Method: FLUCTUATION (MICROTITER)) was “inactive; negative”. For the same compound, the mutagenic call (Test System: AMES SALMONELLA TYPHIMURIUM, Strain/Indicator: TA7005, Metabolic Activation: RAT LIVER S-9, AROCLOR 1254, Method: FLUCTUATION (MICROTITER)) was “active; positive”, the mutagenic call (Test System: AMES SALMONELLA TYPHIMURIUM, Strain/Indicator: TA7006, Metabolic Activation: NONE, Method: FLUCTUATION (MICROTITER)) was “inactive; negative” and the mutagenic call (Test System: AMES SALMONELLA TYPHIMURIUM, Strain/Indicator: TA7006, Metabolic Activation: RAT LIVER S-9, AROCLOR 1254, Method: FLUCTUATION (MICROTITER)) was “inactive; negative”. For the same compound, the mutagenic call (Test System: UDS RODENT HEPATOCYTES, Strain/Indicator: THY INCORP (NON-S-PHASE), Metabolic Activation: IN VIVO, Method: AUTORADIOGRAPHY) was “inactive; negative”.

With Fc1cnc2c(ccc3ccccc32)c1 the mutagenic call (Test System: AMES SALMONELLA TYPHIMURIUM, Strain/Indicator: TA100, Metabolic Activation: RAT, LIVER, S-9, PHENOBARBITAL AND 5,6-BENZOFLAVONE, Method: PREINCUBATION) was “inactive; negative”.
